{"source": "patent US20050033056A1", "about": "“Hydroxylated indole derivatives and uses thereof” (priority 2001, published 2005)", "key": {"CYP3A4/5": {"system": "CYP3A4/5", "assay": "CYP induction in primary human hepatocytes, Western immunoblotting: CYP3A4/5", "format": "cell-based", "conditions": "10 or 50 μM for 72 hours; hepatocytes from three donors", "procedure": "Upon receiving a primary culture of human hepatocytes in 6-well plates, the culture medium containing streptomycin/penicillin was refreshed (2 ml/well). […] The culture medium and testing compounds were replenished every 24 hours.\nAt the end of the treatment, the cells were harvested into 1 mL of phosphate-buffered saline (PBS) after washing twice. The cells were precipitated by centrifugation, and were resuspended in PBS (approximately 50 μL).\nThe membrane was blocked by 5% non-fat dried milk (NFDM) blotting buffer (PBS containing 0.05% Tween 20) at 4° C. overnight. […] The membrane was rinsed six times (10 minutes each time) with the blotting buffer, and exposed to 1:10,000 diluted secondary antibodies labeled with horseradish peroxidase for 1 hour at room temperature. After being extensively rinsed with the blotting buffer, the membrane was exposed to the substrate of peroxidase (enhanced chemiluminescence reagent). CYP proteins were detected by […] using an X-ray developer."}, "5-HT2 receptor": {"biological_target": "5-HT2 receptor", "conditions": "background statement, see WO 98/43956 and EP 0 976 732 A1; cited from earlier work"}, "CYP2C19": {"biological_target": "CYP2C19 (Homo sapiens, UniProt P33261)", "sequence (P33261 whole entry)": "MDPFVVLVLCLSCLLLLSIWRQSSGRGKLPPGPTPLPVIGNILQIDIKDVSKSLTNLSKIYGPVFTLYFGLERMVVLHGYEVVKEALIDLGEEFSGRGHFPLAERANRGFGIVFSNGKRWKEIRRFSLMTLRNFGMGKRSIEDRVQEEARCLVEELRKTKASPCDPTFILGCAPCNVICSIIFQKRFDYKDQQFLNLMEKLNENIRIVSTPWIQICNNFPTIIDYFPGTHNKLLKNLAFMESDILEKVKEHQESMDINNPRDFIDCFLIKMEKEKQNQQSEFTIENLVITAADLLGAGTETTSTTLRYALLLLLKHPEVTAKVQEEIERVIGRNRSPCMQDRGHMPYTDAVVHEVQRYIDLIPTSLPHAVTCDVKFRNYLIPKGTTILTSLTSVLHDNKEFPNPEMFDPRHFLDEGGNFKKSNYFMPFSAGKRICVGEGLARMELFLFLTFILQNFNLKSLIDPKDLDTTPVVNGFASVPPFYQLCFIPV", "assay": "CYP inhibition in HLM: S-mephenytoin 4'-hydroxylation", "format": "in vitro ADME", "design": "tissue Gentest Corp. (Woburn, Mass.); host or cells: pooled human liver microsomes", "conditions": "in the presence of Compound 1, concentration-dependent", "procedure": "The incubations were carried out in test tubes (12.0×75 mm). The incubation mixtures (250 μL) contained 0.5 mg of HLM protein, 50 (CYP1A2 and CYP2E1) or 25 (CYP2C9, CYP2C19, CYP2D6 and CYP3A4) pmol of recombinant human CYPs, Compound 1 (10 or 50 μM), probe substrate (R—, S-warfarin, chlorzoxazone, S-mephenyloin, or bufuralol) at different concentrations, and 0.5 mg of NADPH in 50 mM Tris buffer containing 15 mM MgCl2 (pH 7.4). Compound 1 was added to the reaction mixture 5 minutes prior to the addition of the probe substrate. […]\nThe quantification was based on the calibration curves, and the quality control (QC) samples were applied to ensure the quality of the experiments. […]\n4. […] MRM was applied for the quantification. […]\nData were acquired and analyzed by ChemStation (Version 6.03, Hewlett Packard, Waldbronn, Germany) for 6-, 7-, and 10-hydroxywarfarin and 6-hydroxychlorzoxazone, and MacQuan (Version 1.6, PE Biosystem, Foster City, Calif.) for 1′-hydroxybufuralol and 4′-hydroxymephenytoin. Quantification was based on peak area ratios of metabolites over the respective IS against the respective concentration of the metabolites. […] The metabolic rates were determined using Excel (Microsoft Office 97, Microsoft Corporation, Redmond, Wash.) or SigmaPlot (Version 6.00, SPSS Inc. Chicago, Ill.). […]"}}, "data": [{"compound": "CNC(=O)Cc1ccc2ccn(C3CCN(CCc4ccccc4F)CC3)c2c1", "note": "[Compound 1, N-methyl-[1-[1-(2-fluorophenethyl)piperidine-4-yl]-1H-indol-6-yl] acetamide]", "values": [{"measurement": "expression of CYP3A4/5 (Western immunoblotting)", "setting": "CYP3A4/5", "value": "did not increase"}, {"measurement": "IC50, binding to 5-HT2 receptor", "setting": "5-HT2 receptor", "value": "low nanomolar"}, {"measurement": "effect on CYP2C19-mediated S-mephenyloin 4'-hydroxylation activity (in words)", "setting": "CYP2C19", "value": "significantly reduced"}]}]}
